Source: publication PMC5369532, “NMR-filtered virtual screening leads to non-metal chelating metallo-β-lactamase inhibitors” (Chemical Science, 2016)

Legend:
TEM-1 = TEM-1 (Escherichia coli, UniProt P62593); experiment: TEM-1 inhibition, selectivity profile (FC5 substrate); format: biochemical; settings: Fig. 4
NDM-1 = target: T1, NDM-1 (Klebsiella pneumoniae, UniProt C7C422); experiment: NDM-1 inhibition, selectivity profile (FC5 substrate); format: biochemical; settings: Fig. 4
T1 construct: made in house; host or cells: Escherichia coli
Description: (§1) Except where noted, recombinant forms of NDM-1, VIM-2, SPM-1, IMP-1, and BcII MBLs were produced in Escherichia coli and assays were carried out as described previously10. The IC50 values of all the compounds for VIM-2 were determined using […]
(§2) the FC-5 based assay10. […]
(§3) concentrations (0 μM, 1 μM, and 100 μM, see Fig. S8). The selectivity profiles of compounds of interest against other B1 MBLs including VIM-511, VIM-110, NDM-1, SPM-1, and BcII, and TEM-112 (class A SBL) were determined using the same method as described above. The inhibitory activities of these compounds against CphA (B2 […]
(§4) Enzymea Categorya [E]b, (nM) Substrate [Substrate], (μM) […]
(§5) CphA Class B2 MBL 2.5 Meropenem 125 […]
(§6) TEM-1 Class A SBL 2.5 FC5 5 a MBL: Metallo β-lactamase; SBL: serine β-lactamase; VIM, Verona Integron–encoded MBL; IMP, Imipenemase; NDM, New Delhi MBL; TEM-1: Temomeira-type 1 […]
(§7) b The enzyme concentrations of the purified proteins were determined by measuring Abs@280nm using a NanoDrop (ThermoFisher) spectrometer and calculated molar extinction coefficient for each sample; concentrations of diluted solutions used in the assay were calculated from the original concentration. […]
(§8) negative controls. These were tested in same assay conditions but at 2mM instead of 100uM compound concentration.

BcII = target: T2, BcII (Bacillus cereus, UniProt P04190); experiment: BcII inhibition, selectivity profile (FC5 substrate); format: biochemical; settings: Fig. 4
T2 construct: made in house; host or cells: Escherichia coli
Description: as §1, §2, §3, §4, §5, §6, §7, §8

L1 = L1 (Stenotrophomonas maltophilia, UniProt P52700); experiment: biochemical
Description: as §1
(§9) concentrations (0 μM, 1 μM, and 100 μM, see Fig. S8). The selectivity profiles of […]
(§10) as described above. The inhibitory activities of these compounds against CphA (B2 MBL)13 and L1 (B3 MBL)14 were determined using meropenem and nitrocefin, […]
(§11) at 100 μM. […]
(§12) MBL; IMP, Imipenemase; NDM, New Delhi MBL; TEM-1: Temomeira-type 1 […]
as §7
(§13) negative controls. These were tested in same assay conditions but at 2mM instead of 100uM compound concentration. […]

CphA = CphA (Aeromonas hydrophila, UniProt P26918); experiment: biochemical
Description: as §1, §9, §10, §11, §12, §7, §13

SPM-1 = SPM-1 (Pseudomonas aeruginosa, UniProt Q8G9Q0); experiment: SPM-1 inhibition, selectivity profile (FC5 substrate); format: biochemical; settings: Fig. 4
Description: as §1, §2, §3, §4, §5, §6, §7, §8

apo-VIM-2 = apo-VIM-2 (Escherichia coli, UniProt Q5U7L7); format: binding; settings: 50 μM apo enzyme, 50 μM compound, 50 mM Tris-D11 pH 7.5
Description: (§14) Except where noted, recombinant forms of NDM-1, VIM-2, SPM-1, IMP-1, and BcII MBLs were produced in Escherichia coli and assays were carried out as described […]
(§15) previously10. […]
(§16) Nuclear Magnetic Resonance (NMR) spectra were recorded using a Bruker AVIII 600 MHz NMR spectrometer equipped with a BB-19F/1H Prodigy N2 cryoprobe using 5 mm diameter NMR tubes (Norell). Typical experimental parameters for Carr-Purcell-Meiboom-Gill (CPMG) NMR spectroscopy were: total echo time, 40 ms; […]
(§17) The PROJECT-CPMG sequence
(§18) (90°x−[τ−180°y−τ−90°y−τ−180°y−τ]n−acq) was applied. 15 Water suppression was achieved by pre-saturation. Data were processed with Bruker 3.1 software. Prior to […]
(§19) Fourier transformation, data were multiplied with an exponential function with 0.5 Hz […]
(§20) line broadening. […]

di-Zn(II) VIM-2 = target: T3, di-Zn(II) VIM-2 (Escherichia coli, UniProt Q5U7L7); format: binding; settings: 50 μM enzyme, 50 μM Zn(II), 50 μM compound, 50 mM Tris-D11 pH 7.5
T3 construct: made in house
Description: as §14, §15, §16, §17, §18, §19, §20

VIM-1 = VIM-1 (Pseudomonas aeruginosa, UniProt A0A0F7KYQ8); experiment: biochemical; settings: n ≥ 3
VIM-2 = target: T4, VIM-2 (Escherichia coli, UniProt Q5U7L7); experiment: biochemical; format: biochemical
T4 construct: made in house; host or cells: Escherichia coli
Description: as §1, §9
as described above. The inhibitory activities of these compounds against CphA (B2 […]
as §12, §7, §13

Sequence of CphA (P26918 28-254): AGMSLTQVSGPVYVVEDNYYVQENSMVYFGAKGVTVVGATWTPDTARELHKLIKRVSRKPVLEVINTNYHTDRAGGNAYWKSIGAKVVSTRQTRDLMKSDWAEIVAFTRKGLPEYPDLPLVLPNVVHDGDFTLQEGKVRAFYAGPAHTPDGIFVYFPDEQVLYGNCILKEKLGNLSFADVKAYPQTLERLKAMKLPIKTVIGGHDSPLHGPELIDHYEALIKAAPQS
T1 sequence (C7C422 29-270, looked up, species assumed): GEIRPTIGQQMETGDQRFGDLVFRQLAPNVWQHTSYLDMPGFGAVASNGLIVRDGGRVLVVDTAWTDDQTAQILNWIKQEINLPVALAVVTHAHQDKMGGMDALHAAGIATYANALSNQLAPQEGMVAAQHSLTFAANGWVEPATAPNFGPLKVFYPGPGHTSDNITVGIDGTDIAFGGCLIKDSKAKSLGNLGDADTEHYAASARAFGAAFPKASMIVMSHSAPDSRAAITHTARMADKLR
Sequence of TEM-1 (P62593 24-286 limits assumed): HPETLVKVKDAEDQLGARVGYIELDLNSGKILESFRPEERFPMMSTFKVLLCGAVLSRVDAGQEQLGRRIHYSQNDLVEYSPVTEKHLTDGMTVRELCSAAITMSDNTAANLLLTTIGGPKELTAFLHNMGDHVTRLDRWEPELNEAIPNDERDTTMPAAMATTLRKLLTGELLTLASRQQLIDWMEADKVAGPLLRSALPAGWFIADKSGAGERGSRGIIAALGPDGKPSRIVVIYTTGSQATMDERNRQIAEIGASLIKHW
Sequence of SPM-1 (Q8G9Q0 entry or part of it): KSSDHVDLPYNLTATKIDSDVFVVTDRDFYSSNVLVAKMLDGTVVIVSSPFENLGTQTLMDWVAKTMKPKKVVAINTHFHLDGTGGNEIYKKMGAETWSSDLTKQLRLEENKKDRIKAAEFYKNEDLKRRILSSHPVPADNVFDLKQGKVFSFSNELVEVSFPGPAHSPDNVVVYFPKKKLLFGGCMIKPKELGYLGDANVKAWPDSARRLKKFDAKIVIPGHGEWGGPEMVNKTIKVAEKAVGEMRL
T2 sequence (P04190 31-257): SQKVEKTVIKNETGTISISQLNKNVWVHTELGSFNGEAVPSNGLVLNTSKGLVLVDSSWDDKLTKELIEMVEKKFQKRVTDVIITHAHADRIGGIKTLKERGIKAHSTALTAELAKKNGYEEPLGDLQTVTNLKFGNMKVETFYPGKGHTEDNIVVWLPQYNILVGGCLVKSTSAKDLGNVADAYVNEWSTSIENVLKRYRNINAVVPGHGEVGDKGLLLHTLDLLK
Sequence of L1 (P52700 34-290): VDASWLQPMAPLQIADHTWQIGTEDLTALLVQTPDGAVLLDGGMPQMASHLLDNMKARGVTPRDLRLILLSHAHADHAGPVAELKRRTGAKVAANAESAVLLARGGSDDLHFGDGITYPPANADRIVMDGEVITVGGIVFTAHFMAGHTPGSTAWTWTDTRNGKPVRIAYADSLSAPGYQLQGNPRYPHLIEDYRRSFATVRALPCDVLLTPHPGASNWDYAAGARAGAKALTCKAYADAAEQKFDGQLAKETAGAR

| SMILES | inhibition of class A serine β-lactamase TEM-1 (in words) (TEM-1) | IC50 (NDM-1) | IC50 (BcII) | IC50 (L1) | IC50 (CphA) | IC50 (SPM-1) | binding to apo-VIM-2 by 1H CPMG NMR (apo-VIM-2) | binding to di-Zn(II) VIM-2 by 1H CPMG NMR (di-Zn(II) VIM-2) | IC50 (VIM-1) | differences between the inhibitory activity with or without excess Zn(II) (VIM-2; 0 μM, 1 μM and 100 μM Zn(II)) | IC50 (VIM-2; FC-5 based assay, n ≥ 3, read-out: IC50 (VIM-2)) |
| --- | --- | --- | --- | --- | --- | --- | --- | --- | --- | --- | --- |
| O=C(O)c1cccc2c1C(=O)N(Cc1c(F)cccc1Cl)C2 [Compound 16] | no inhibition was observed | > 400 µM | > 400 µM | > 400 µM | > 400 µM | > 400 µM | – | – | – | – | – |
| O=C(O)c1cccc2c1C(=O)N(c1cccc(C(F)(F)F)c1)C2 [Compound 17] | no inhibition was observed | > 400 µM | > 400 µM | > 400 µM | > 400 µM | > 400 µM | binding and bind | binding and bind | > 400 µM | no obvious differences | 32.8 µM |
